Results reported in publication PMC7496286, “The Selectivity of Fosfosal for STAT5b over STAT5a is Mediated by Arg566 in the Linker Domain” (Chembiochem, 2020).
Residue numbers refer to the chain shown, from its start.

Columns and labels:
[1] = biological target: T1, STAT5b-7M (Arg566Trp/Gln636Pro/Met639Asn/Phe640Leu/Met644Lys/Asn664Ser/Tyr679Phe) (Homo sapiens, UniProt P51692, F640L/M639N/M644K/N664S/Q636P/R566W/Y679F); assay: FP-based competitive binding assay, STAT5b-7M
T1 construct: His; made in house
T1 sequence (P51692 1-787 R566W/Q636P/M639N/F640L/M644K/N664S/Y679F): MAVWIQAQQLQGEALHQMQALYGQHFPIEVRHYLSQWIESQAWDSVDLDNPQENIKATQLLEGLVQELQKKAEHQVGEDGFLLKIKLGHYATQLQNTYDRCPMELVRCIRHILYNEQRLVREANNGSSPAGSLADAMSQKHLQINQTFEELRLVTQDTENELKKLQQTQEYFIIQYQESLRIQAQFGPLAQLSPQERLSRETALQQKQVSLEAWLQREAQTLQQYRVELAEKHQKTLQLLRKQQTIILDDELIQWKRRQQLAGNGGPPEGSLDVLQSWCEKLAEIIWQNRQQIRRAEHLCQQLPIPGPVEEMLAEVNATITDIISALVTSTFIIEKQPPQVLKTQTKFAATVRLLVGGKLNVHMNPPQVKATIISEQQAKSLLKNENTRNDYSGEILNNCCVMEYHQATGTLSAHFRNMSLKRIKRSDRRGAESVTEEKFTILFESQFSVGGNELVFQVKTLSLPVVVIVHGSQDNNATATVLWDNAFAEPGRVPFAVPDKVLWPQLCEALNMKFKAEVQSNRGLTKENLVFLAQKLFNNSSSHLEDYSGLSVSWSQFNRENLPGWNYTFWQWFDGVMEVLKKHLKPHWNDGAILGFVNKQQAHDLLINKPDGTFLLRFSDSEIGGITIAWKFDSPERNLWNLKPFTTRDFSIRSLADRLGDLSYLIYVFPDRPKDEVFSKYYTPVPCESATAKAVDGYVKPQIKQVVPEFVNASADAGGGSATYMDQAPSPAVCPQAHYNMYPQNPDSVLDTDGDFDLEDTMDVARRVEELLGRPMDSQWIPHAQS
Protocol: (§1) Fluorescence polarization assays
(§2) The ability of test compounds to displace 5-carboxyfluorescein-GY(PO3H2)LVLDKW (final concentration: 10 nM) from the SH2 domain of STAT5a/b proteins was analyzed. Proteins […]
(§3) was applied in dilution series comprising the following concentrations: 0.024 – 200 µM […]
(§4) and 0.146 – 600 µM (STAT5b Arg566Glu), respectively. The assays were performed in buffer containing 10 mM Tris, 50 mM NaCl, 1 mM DTT, 1 mM EDTA and 0.1% (v/v) NP-40. Fosfosal was dissolved in DMSO. STAT5a/b proteins and fosfosal were incubated at room temperature for 1 h before adding peptide. Samples were transferred to 384-well microtiter plates and fluorescence polarization was read after a further 1 h incubation time. All measurements were performed in triplicate (n=3), except for STAT5b (n=6) and STAT5a Trp566Arg (n=4). Percent binding was calculated based on a logarithmic curve fit using OriginPro 8G software. IC50 values were converted to Ki values using the published equation.[4] […]
(§5) [4] Z. Nikolovska-Coleska, R. Wang, X. Fang, H. Pan, Y. Tomita, P. Li, P. P. Roller, K.
(§6) Krajewski, N. G. Saito, J. A. Stuckey, S. Wang, Anal. Biochem. 2004, 332, 261-273.

STAT5a SH2 domain = biological target: T2, STAT5a SH2 domain (Homo sapiens, UniProt P42229); assay: FP-based competitive binding assay, wild-type STAT5a
T2 construct: His; made in house
T2 sequence (P42229 1-794): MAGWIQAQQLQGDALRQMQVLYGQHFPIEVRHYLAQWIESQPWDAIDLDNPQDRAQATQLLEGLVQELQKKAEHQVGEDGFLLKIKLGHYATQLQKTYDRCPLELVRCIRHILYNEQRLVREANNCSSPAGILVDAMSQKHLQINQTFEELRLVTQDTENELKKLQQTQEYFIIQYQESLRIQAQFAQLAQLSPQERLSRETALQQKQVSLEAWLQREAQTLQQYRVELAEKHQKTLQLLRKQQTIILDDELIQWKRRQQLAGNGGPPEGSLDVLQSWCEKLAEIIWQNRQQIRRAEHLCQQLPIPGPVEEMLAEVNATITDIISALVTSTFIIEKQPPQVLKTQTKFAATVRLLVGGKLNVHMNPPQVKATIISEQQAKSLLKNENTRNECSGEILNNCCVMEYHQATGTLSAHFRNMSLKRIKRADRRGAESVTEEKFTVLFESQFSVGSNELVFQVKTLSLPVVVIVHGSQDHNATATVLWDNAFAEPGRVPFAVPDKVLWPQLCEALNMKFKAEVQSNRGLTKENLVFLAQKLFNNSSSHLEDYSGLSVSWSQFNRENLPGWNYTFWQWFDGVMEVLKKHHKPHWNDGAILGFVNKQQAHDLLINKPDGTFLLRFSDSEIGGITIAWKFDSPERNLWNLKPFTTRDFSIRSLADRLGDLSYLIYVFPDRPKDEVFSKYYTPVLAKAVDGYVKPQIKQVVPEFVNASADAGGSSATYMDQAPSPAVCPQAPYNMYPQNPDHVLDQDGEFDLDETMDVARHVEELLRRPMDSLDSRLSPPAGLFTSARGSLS
Protocol: as §1, §2, §3, §4, §5, §6

STAT5b Arg566Ala = biological target: T3, STAT5b Arg566Ala (Homo sapiens, UniProt P51692, R566A); assay: FP-based competitive binding assay, STAT5b Arg566Ala
T3 construct: His; made in house
T3 sequence (P51692 1-787 R566A): T1 sequence (P51692 1-787 R566W/Q636P/M639N/F640L/M644K/N664S/Y679F) with W566A, P636Q, N639M, L640F, K644M, S664N, F679Y
Protocol: as §1, §2, §3, §4, §5, §6

Row | IC50 ([1]; STAT5b-7M) | Ki ([1]; STAT5b-7M, Ki calculated from IC50) | IC50 (STAT5a SH2 domain; wild-type STAT5a) | Ki (STAT5a SH2 domain; wild-type STAT5a, Ki calculated from IC50 with published equation) | inhibition at 600 µM (STAT5b Arg566Ala; STAT5b Arg566Ala, 600 μM) | SMILES | Kd [1] | Kd (STAT5a SH2 domain) | Kd (STAT5b Arg566Ala)
1 | – | – | – | – | – | CC(C)C[C@H](NC(=O)[C@H](Cc1ccc(OP(=O)(O)O)cc1)NC(=O)CNC(=O)c1ccc2c(c1)C(=O)OC21c2ccc(O)cc2Oc2cc(O)ccc21)C(=O)N[C@H](C(=O)N[C@@H](CC(C)C)C(=O)N[C@@H](CC(=O)O)C(=O)N[C@@H](CCCCN)C(=O)N[C@@H](Cc1c[nH]c2ccccc12)C(=O)O)C(C)C [5-carboxyfluorescein-GY(PO3H2)LVLDKW] | 0.246 µM | 0.147 µM | 0.567 µM
2 | 379 ± 7 µM | 189 ± 3 µM | 299 ± 17 µM | 148 ± 9 µM | 22 ± 3% | O=C(O)c1ccccc1OP(=O)(O)O [fosfosal, O‐phosphorylated salicylic acid] | – | – | –
